In patent US20230072683A1, “PYRIDO-PYRIMIDIN DERIVATIVES AND PHARMACEUTICAL COMPOSITION, FOR USE IN PREVENTING OR TREATING PI3 KINASE RELATED DISEASES, COMPRISING SAME AS ACTIVE INGREDIENT” (BORYUNG PHARMACEUTICAL CO., LTD, priority 2019, published 2023):
Where two headings read alike, the source gives them in different places.

Legend:
[1] = molecular target: PI3K-δ (PI3K(p1108/p857) (h)) (Homo sapiens, UniProt O00329); assay: Evaluation of inhibitory activity against PI3K-δ (HTRF kinase assay); format: biochemical; conditions: for inhibition at 0.01 µM: compound concentration 0.01 μM, read-out: EXP_VALUE(% Inhibition) PI3K-δ 0.01 μM; for inhibition at 0.1 µM: read-out: EXP_VALUE(% Inhibition) PI3K-δ 0.1 μM
How it was run: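 HTRF read-out (665/620 nm ratio ×10000) used Eu-labelled anti-GST, GST-tagged GRP1 PH domain and streptavidin-allophycocyanin after EDTA/PIP3 stop.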

DNA-PK(h) = DNA-PK(h) (Homo sapiens, UniProt P78527); assay: Evaluation of inhibitory activity against DNA-PK (HTRF kinase assay, GST-cMyc-p53 substrate); format: biochemical; conditions: for inhibition at 0.01 µM: compound concentration 0.01 μM, read-out: EXP_VALUE(% Inhibition) DNA-PK(h) 0.01 μM; for inhibition at 0.1 µM: read-out: EXP_VALUE(% Inhibition) DNA-PK(h) 0.1 μM
How it was run: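 p53 Ser15 phosphorylation by human DNA-PK was measured by time-resolved FRET ratio (665/620 nm ×10000) using Eu-labelled anti-phospho-Ser15 and d2 anti-GST antibodies. Substrate GST-cMyc-p53 at 50 μM; Mg/ATP-initiated, 30 min at room temperature, EDTA stop.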

Chain of PI3K-δ (PI3K(p1108/p857) (h)) (O00329 whole entry, the tested form may be a part): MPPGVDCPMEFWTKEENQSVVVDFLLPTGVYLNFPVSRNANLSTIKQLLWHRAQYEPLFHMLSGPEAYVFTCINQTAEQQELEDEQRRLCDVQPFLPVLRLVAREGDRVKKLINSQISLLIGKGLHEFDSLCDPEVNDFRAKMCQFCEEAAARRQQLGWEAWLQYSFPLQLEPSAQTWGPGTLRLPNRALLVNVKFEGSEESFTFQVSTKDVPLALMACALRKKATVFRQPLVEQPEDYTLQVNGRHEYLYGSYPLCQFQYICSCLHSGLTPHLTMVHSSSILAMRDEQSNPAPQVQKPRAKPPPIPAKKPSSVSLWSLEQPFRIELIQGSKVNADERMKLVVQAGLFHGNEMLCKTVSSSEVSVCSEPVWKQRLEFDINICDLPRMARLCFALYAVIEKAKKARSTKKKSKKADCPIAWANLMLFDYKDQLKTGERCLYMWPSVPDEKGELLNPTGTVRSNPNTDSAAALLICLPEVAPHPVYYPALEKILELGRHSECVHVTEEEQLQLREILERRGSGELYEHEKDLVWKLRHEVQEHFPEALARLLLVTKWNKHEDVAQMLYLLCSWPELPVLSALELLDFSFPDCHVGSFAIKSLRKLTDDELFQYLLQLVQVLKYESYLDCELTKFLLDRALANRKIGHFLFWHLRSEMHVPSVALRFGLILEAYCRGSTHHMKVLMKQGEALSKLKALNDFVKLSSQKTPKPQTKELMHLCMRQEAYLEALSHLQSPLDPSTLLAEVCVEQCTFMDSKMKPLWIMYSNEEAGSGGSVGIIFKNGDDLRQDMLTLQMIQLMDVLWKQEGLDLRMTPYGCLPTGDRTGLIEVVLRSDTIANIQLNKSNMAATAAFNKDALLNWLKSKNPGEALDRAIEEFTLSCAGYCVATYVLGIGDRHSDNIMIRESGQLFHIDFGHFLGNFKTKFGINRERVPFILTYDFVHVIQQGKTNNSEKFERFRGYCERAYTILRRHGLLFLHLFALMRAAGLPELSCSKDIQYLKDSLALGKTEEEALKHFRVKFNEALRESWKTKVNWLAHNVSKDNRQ
Chain of PI3K-δ (PI3K(p1108/p857) (h)) (P27986 whole entry partner, the tested form may be a part): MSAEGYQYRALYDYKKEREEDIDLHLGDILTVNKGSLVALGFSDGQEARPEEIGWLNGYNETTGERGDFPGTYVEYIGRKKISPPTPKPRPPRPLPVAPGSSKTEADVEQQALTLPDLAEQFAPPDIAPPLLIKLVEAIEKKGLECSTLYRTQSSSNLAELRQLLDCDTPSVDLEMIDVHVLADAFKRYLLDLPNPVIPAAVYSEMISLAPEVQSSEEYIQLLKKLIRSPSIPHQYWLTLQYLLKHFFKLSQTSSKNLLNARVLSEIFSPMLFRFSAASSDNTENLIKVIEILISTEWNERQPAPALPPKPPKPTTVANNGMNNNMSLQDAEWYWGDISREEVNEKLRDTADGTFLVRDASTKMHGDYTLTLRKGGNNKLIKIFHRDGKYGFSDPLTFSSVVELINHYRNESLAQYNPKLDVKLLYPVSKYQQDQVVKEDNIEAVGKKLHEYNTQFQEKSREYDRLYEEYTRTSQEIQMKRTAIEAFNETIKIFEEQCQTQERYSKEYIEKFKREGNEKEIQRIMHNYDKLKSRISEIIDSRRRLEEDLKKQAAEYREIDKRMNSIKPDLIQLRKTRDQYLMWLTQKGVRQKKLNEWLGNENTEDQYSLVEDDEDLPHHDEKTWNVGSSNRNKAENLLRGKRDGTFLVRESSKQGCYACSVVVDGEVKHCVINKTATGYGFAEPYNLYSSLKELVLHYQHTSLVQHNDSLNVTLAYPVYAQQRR

| SMILES | inhibition at 0.01 µM [1] [%] | inhibition at 0.1 µM ([1]; compound concentration 0.1 μM) [%] | inhibition at 0.01 µM (DNA-PK(h)) [%] | inhibition at 0.1 µM (DNA-PK(h); compound concentration 0.1 μM) [%] | inhibition at 0.1 µM ([1]; compound at 0.1 μM) [%] | inhibition at 0.1 µM (DNA-PK(h); compound at 0.1 μM) [%] |
| --- | --- | --- | --- | --- | --- | --- |
| C[C@H](Nc1ncnc2[nH]ccc(=O)c12)c1c(Br)c2cccc(Cl)c2c(=O)n1-c1ccccc1 [Example 1, (S)-4-((1-(4-bromo-8-chloro-1-oxo-2-phenyl-1,2-dihydroisoquinolin-3-yl)ethyl)amino)pyrido[2,3-d]pyrimidin-5(8H)-one] | 105 | 104 | 52 | 91 | – | – |
| C[C@H](Nc1ncnc2[nH]ccc(=O)c12)c1cc2cccc(C#N)c2c(=O)n1-c1ccccc1 [Example 266, (S)-1-oxo-3-(1-((5-oxo-5,8-dihydropyrido[2,3-d]pyrimidin-4-yl)amino)ethyl)-2-phenyl-1,2-dihydroisoquinoline-8-carbonitrile] | 69 | 88 | -10 | 3 | – | – |
| CC(C)[S@@](=N)(=O)c1cccc2c(Cl)c([C@H](C)Nc3ncnc4[nH]ccc(=O)c34)n(-c3ccccc3)c(=O)c12 [Example 410, 4-(((S)-1-(4-chloro-1-oxo-2-phenyl-8-((R)-propan-2-ylsulfonimidoyl)-1,2-dihydroisoquinolin-3-yl)ethyl)amino)pyrido[2,3-d]pyrimidin-5(8H)-one] | – | – | – | – | 14 | 23 |
| C[C@H](Nc1ncnc2[nH]ccc(=O)c12)c1c(Cl)c2cccc(-c3ccc(-c4cccs4)cc3)c2c(=O)n1-c1ccccc1 [Example 93, (S)-4-((1-(4-chloro-1-oxo-2-phenyl-8-(4-(thiophen-2-yl)phenyl)-1,2-dihydroisoquinolin-3-yl)ethyl)amino)pyrido[2,3-d]pyrimidin-5(8H)-one] | 46 | 79 | 13 | 45 | – | – |
| C[C@H](Nc1ncnc2[nH]ccc(=O)c12)c1c(C2CC2)c2cccc(Cl)c2c(=O)n1-c1ccccc1 [Example 65, (S)-4-((1-(8-chloro-4-cyclopropyl-1-oxo-2-phenyl-1,2-dihydroisoquinolin-3-yl)ethyl)amino)pyrido[2,3-d]pyrimidin-5(8H)-one] | 89 | 110 | 58 | 90 | – | – |
| C[C@H](Nc1ncnc2[nH]ccc(=O)c12)c1c(Cl)c2cccc(S(=O)(=O)c3ccc(F)cc3)c2c(=O)n1-c1ccccc1 [Example 399, (S)-4-((1-(4-chloro-8-((4-fluorophenyl)sulfonyl)-1-oxo-2-phenyl-1,2-dihydroisoquinolin-3-yl)ethyl)amino)pyrido[2,3-d]pyrimidin-5(8H)-one] | – | – | – | – | 92 | 23 |
| C[C@H](Nc1ncnc2[nH]ccc(=O)c12)c1c(Cl)c2cccc(-c3ccc(CN4CCOCC4)cc3F)c2c(=O)n1-c1ccccc1 [Example 231, (S)-4-((1-(4-chloro-8-(2-fluoro-4-(morpholinomethyl)phenyl)-1-oxo-2-phenyl-1,2-dihydroisoquinolin-3-yl)ethyl)amino)pyrido[2,3-d]pyrimidin-5(8H)-one] | 44 | – | 67 | – | – | – |
| CNC(=O)c1cccc2c(Cl)c([C@H](C)Nc3ncnc4[nH]ccc(=O)c34)n(-c3ccccc3)c(=O)c12 [Example 274, (S)-4-chloro-N-methyl-1-oxo-3-(1-((5-oxo-5,8-dihydropyrido[2,3-d]pyrimidin-4-yl)amino)ethyl)-2-phenyl-1,2-dihydroisoquinoline-8-carboxamide] | 99 | – | 18 | – | – | – |
| C[C@H](Nc1ncnc2[nH]ccc(=O)c12)c1c(Cl)c2cccc(-c3ccc(C(=O)N4CCOCC4)cc3)c2c(=O)n1-c1ccccc1 [Example 145, (S)-4-((1-(4-chloro-8-(4-(morpholin-4-carbonyl)phenyl)-1-oxo-2-phenyl-1,2-dihydroisoquinolin-3-yl)ethyl)amino)pyrido[2,3-d]pyrimidin-5(8H)-one] | 88 | – | 93 | – | – | – |
| C[C@H](Nc1ncnc2[nH]ccc(=O)c12)c1c(Cl)c2cccc(NC3CCOC3)c2c(=O)n1-c1ccccc1 (stereo partly drawn) [Example 331, 4-(((1S)-1-(4-chloro-1-oxo-2-phenyl-8-((tetrahydrofuran-3-yl)amino)-1,2-dihydroisoquinolin-3-yl)ethyl)amino)pyrido[2,3-d]pyrimidin-5(8H)-one] | 24 | 74 | 31 | 76 | – | – |
| C[C@H](Nc1ncnc2[nH]ccc(=O)c12)c1cc2cccc(-c3cnn(C)c3)c2c(=O)n1-c1ccccc1 [Example 15, (S)-4-((1-(8-(1-methyl-1H-pyrazol-4-yl)-1-oxo-2-phenyl-1,2-dihydroisoquinolin-3-yl)ethyl)amino)pyrido[2,3-d]pyrimidin-5(8H)-one] | 109 | 108 | 24 | 37 | – | – |
| COc1ccccc1Oc1cccc2c(Cl)c([C@H](C)Nc3ncnc4[nH]ccc(=O)c34)n(-c3ccccc3)c(=O)c12 [Example 366, (S)-4-((1-(4-chloro-8-(2-methoxyphenoxy)-1-oxo-2-phenyl-1,2-dihydroisoquinolin-3-yl)ethyl)amino)pyrido[2,3-d]pyrimidin-5(8H)-one] | 41 | 85 | 23 | 69 | – | – |

The next lines start with the values.

| inhibition at 0.01 µM [1] [%] | inhibition at 0.1 µM ([1]; compound concentration 0.1 μM) [%] | inhibition at 0.01 µM (DNA-PK(h)) [%] | inhibition at 0.1 µM (DNA-PK(h); compound concentration 0.1 μM) [%] | inhibition at 0.1 µM ([1]; compound at 0.1 μM) [%] | inhibition at 0.1 µM (DNA-PK(h); compound at 0.1 μM) [%] | SMILES |
| --- | --- | --- | --- | --- | --- | --- |
| 80 | – | 73 | – | – | – | C[C@H](Nc1ncnc2[nH]ccc(=O)c12)c1c(Cl)c2cccc(-c3ccc(C(N)=O)nc3)c2c(=O)n1-c1ccccc1 [Example 201, (S)-5-(4-chloro-1-oxo-3-(1-((5-oxo-5,8-dihydropyrido[2,3-d]pyrimidin-4-yl)amino)ethyl)-2-phenyl-1,2-dihydroisoquinolin-8-yl) picolinamide] |
| 60 | – | 19 | – | – | – | C[C@H](Nc1ncnc2[nH]ccc(=O)c12)c1c(Cl)c2cccc(C=O)c2c(=O)n1-c1ccccc1 [Example 271, (S)-4-chloro-1-oxo-3-(1-((5-oxo-5,8-dihydropyrido[2,3-d]pyrimidin-4-yl)amino)ethyl)-2-phenyl-1,2-dihydroisoquinolin-8-carbaldehyde] |
| 12 | – | 101 | – | – | – | COc1cnc(-c2cccc3c(Cl)c([C@H](C)Nc4ncnc5[nH]ccc(=O)c45)n(-c4ccccc4)c(=O)c23)nc1 [Example 30, (S)-4-((1-(4-chloro-8-(5-methoxypyrimidin-2-yl)-1-oxo-2-phenyl-1,2-dihydroisoquinolin-3-yl)ethyl)amino)pyrido[2,3-d]pyrimidin-5(8H)-one] |
| 77 | – | 60 | – | – | – | C[C@H](Nc1ncnc2[nH]ccc(=O)c12)c1c(Cl)c2cccc(-c3ccc4nsnc4c3)c2c(=O)n1-c1ccccc1 [Example 233, (S)-4-((1-(8-(benzo[c][1,2,5]thiadiazol-5-yl)-4-chloro-1-oxo-2-phenyl-1,2-dihydroisoquinolin-3-yl)ethyl)amino)pyrido[2,3-d]pyrimidin-5(8H)-one] |
| 3 | 14 | 9 | 16 | – | – | C[C@H](Nc1ncnc2[nH]ccc(=O)c12)c1c(Cl)c2cccc(-c3ccc(S)cc3)c2c(=O)n1-c1ccccc1 [Example 95, (S)-4-((1-(4-chloro-8-(4-mercaptophenyl)-1-oxo-2-phenyl-1,2-dihydroisoquinolin-3-yl)ethyl)amino)pyrido[2,3-d]pyrimidin-5(8H)-one] |
| 76 | – | 41 | – | – | – | CCOc1cnc(-c2cccc3c(Cl)c([C@H](C)Nc4ncnc5[nH]ccc(=O)c45)n(-c4ccccc4)c(=O)c23)cn1 [Example 230, (S)-4-((1-(4-chloro-8-(5-ethoxypyrazin-2-yl)-1-oxo-2-phenyl-1,2-dihydroisoquinolin-3-yl)ethyl)amino)pyrido[2,3-d]pyrimidin-5(8H)-one] |
| 86 | – | 48 | – | – | – | C[C@H](Nc1ncnc2[nH]ccc(=O)c12)c1c(Cl)c2cccc(-c3ccc(C(=O)O)nc3)c2c(=O)n1-c1ccccc1 [Example 47, (S)-5-(4-chloro-1-oxo-3-(1-((5-oxo-5,8-dihydropyrido[2,3-d]pyrimidin-4-yl)amino)ethyl)-2-phenyl-1,2-dihydroisoquinolin-8-yl)picolinic acid] |
| 42.4 | 65.6 | 23.2 | 64.8 | – | – | C[C@H](Nc1ncnc2[nH]ccc(=O)c12)c1c(Cl)c2cccc(C#Cc3cnn(C)c3)c2c(=O)n1-c1ccccc1 [Example 309, (S)-4-((1-(4-chloro-8-((1-methyl-1H-pyrazol-4-yl)ethynyl)-1-oxo-2-phenyl-1,2-dihydroisoquinolin-3-yl)ethyl)amino)pyrido[2,3-d]pyrimidin-5(8H)-one] |
| 67 | – | 61 | – | – | – | C[C@H](Nc1ncnc2[nH]ccc(=O)c12)c1c(Cl)c2cccc(-c3cnc4nncn4c3)c2c(=O)n1-c1ccccc1 [Example 40, (S)-4-((1-(8-([1,2,4]triazolo[4,3-a]pyrimidin-6-yl)-4-chloro-1-oxo-2-phenyl-1,2-dihydroisoquinolin-3-yl)ethyl)amino)pyrido[2,3-d]pyrimidin-5(8H)-one] |
